The values that follow come from patent US6797726B1, “N-alkoxyalkyl-N,N-dialkylamine derivatives or salts thereof, and remedies for nerve degeneration diseases containing the same” (Toyama Chemical Co., Ltd., priority 1999, dated 2004).

SMILES strings stand for the structures. Where a name gives a salt, the structure may show the parent alone.

For orientation: melting point means the temperature of the solid-liquid transition.

In one data set the test system is ddY male mice. Nature of the data set: Anti-hypoxic activity. The format is in vivo. The settings on record: 100 mg/kg orally, 30 minutes after administration, gas 4% oxygen / 96% nitrogen at 5 L/minute; for response vs control in vivo at 100 mg/kg: Mus musculus, po, 0.5 h, read-out: Anti-hypoxic activity: (survival time of mouse in administered group)÷(survival time of mouse in control group)×100. On the procedure: A test compound (100 mg/kg) dissolved in distilled water is orally administered to ddY male mice of 5-6 weeks age (6-10 heads per group). Thirty minutes after the administration, each mouse was introduced into a glass vessel, and a gas mixture consisting of 4% of oxygen and 96% of nitrogen was passed through the glass vessel at a rate of 5 L/minute. The period of the time from the beginning of sending the gas to the death of the animal was measured.
To the control group, only distilled water was orally given. Anti-hypoxic activity of test compound was calculated according to the following equation:
(Survival time of mouse in administered group)÷(Survival time of mouse in control group)×100(%)

For data set [1], the system named is cultured nerve cells death induced by HNE. Kind of data set: Activity of inhibiting the HNE-induced nerve cell death (MTT assay). The settings on record: 0.1 μM; HNE 25 μmol/L; cultured rat embryo cerebral cortex nerve cells; 24 hours. It is filed as cell-based, Wistar rat. The source says:
The protecting effect against the death of cultured nerve cells induced by HNE was examined by a modification of the method described in the Journal of Neuroscience, Vol. 17, Page 5089 (1997).
Cerebral cortex excised from the brain of an embryo of Wistar rat (embryonal age 17-19 days) was cut into small pieces and then treated with trypsin to dissociate the nerve cells. The cells were spread onto a 48-well tissue-culture plate at a rate of 5×10^5 cells per well, and cultured under a condition of 5% carbon dioxide, 37° C., in a Dulbecco modified Eagle medium to which 10% fetal calf serum and 3.6 mg/mL glucose were added.
In order to inhibit the proliferation of glia cells, cytosine arabinoside was added so as to give a final concentration of 10 μmol/L, from the day one after starting the culture. When the culture had been continued for 2 days, the medium was changed to a Dulbecco modified Eagle medium to which 10% fetal calf serum and 3.6 mg/mL glucose were added. When the culture had been continued for 7-8 days, a test agent was added, after which HNE was immediately added so as to give a final concentration of 25 μmol/L.
The inhibitory activity of an agent on the cultured nerve cell death was […] by using the inhibitory activity on the depression of MTT reducing ability as an index. That is, 24 hours after addition of a test agent, MTT assay [Journal of Immunological Methods, Vol. 65, Page 55 (1983)] developed by Mossmann was carried out, based on which inhibitory rate (%) of the agent on the decrease of MTT assay induced by HNE was calculated.
Inhibitory rate=[MTT assay value of (HNE+agent)−added group)−(MTT assay value of HNE−added group)]÷(MTT assay value of no addition group−MTT assay value of HNE−added group)]×100

`CCN(CC)CCOCCc1ccc2occc2c1` [Example 13, N-[2-(2-Benzo[b]furan-5-ylethoxy)ethyl]-N,N-diethylamine oxalate]: the response vs control in vivo at 100 mg/kg in the data set with ddY male mice worked out at 160%. For `CN(C)CCOCCc1cccc2ccsc12.Cl`, the melting point lay in the range of 130 to 132 °C. The same measure, in the same setting: next, `CN(C)CCOCCc1cccc2sccc12.Cl`: 165 to 167 °C; `CCN(CC)CCOCCc1ccc2ccccc2c1.O=C(O)C(=O)O`: 67 to 72 °C. Still for that read-out and setting: then `CC(C)N(CCOCCc1ccc2sccc2c1)C(C)C.Cl`, with 78 to 79 °C; and `CN(C)CCOCCc1ccc2ccccc2c1.Cl`, with 105 to 107 °C. In the case of `CCN(CCO)CCOCCc1ccc2sccc2c1.O=C(O)C(=O)O`, the melting point fell in the range of 53 to 56 °C. The same measure, in the same setting: then `CN(CCOCCc1ccc2sccc2c1)Cc1ccc([N+](=O)[O-])cc1.O=C(O)C(=O)O`, with 112 to 114 °C. Regarding `C#CCN(C)CCOCCc1ccc2sccc2c1.Cl` [Example 70, N-[2-(2-benzo[b]thiophen-5-ylethoxy)ethyl]-N-methyl-N-(2-pripynyl)amine hydrochloride], in the data set with ddY male mice, the “Anti-hypoxic activity: (survival time of mouse in administered group)÷(survival time of mouse in control group)×100” value came to 213%. For the compound `Cc1cc2cc(CCOCCN(C)CCO)ccc2s1.O=C(O)C(=O)O`, the melting point lay within 73 to 75 °C. On to `CN(CCOCCc1ccc2sccc2c1)Cc1ccccc1.O=C(O)C(=O)O` [Example 20, N-[2-(2-benzo[b]thiophen-5-ylethoxy)ethyl]-N-benzyl-N-methylamine oxalate], for which, in the data set on ddY male mice, the response vs control in vivo at 100 mg/kg worked out at 155%. Further, the “Inhibitory rate on the decrease of MTT assay induced by HNE” value in data set [1] is 69%.

For `CN(CCO)CCOCCc1ccc2sc(F)cc2c1.O=C(O)C(=O)O`, the melting point lay in the range of 77 to 80 °C. The compound `CN(C)CCOCCc1cc2ccsc2cc1Cl.Cl` came in with a melting point of 105 to 108 °C. For `O=C(O)C(=O)O.OCCN(CCOCCc1ccc2sccc2c1)Cc1ccccc1`, the melting point is 104 to 105.5 °C. Take `CCOC(=O)OCCN(C)CCOCCc1ccc2sccc2c1.Cl`: the melting point is 73.5 to 76 °C. Same read-out and setting: next, `CN(CCCO)CCOCCc1ccc2sccc2c1.O=C(O)C(=O)O`: 93 to 95 °C; `COc1ccc2cc(CCOCCN(C)C)ccc2c1.Cl`: 125 to 128 °C; `CCN(CC)CCOCCc1ccc2sc(C(=O)O)cc2c1.Cl`: 148 to 150 °C. `CN(CCO)CCCCCOCCc1ccc2sccc2c1.O=C(O)C(=O)O` gave a melting point of 78.5 to 80.5 °C.

With `CN(C)CCOCCc1ccc2occc2c1.O=C(O)C(=O)O`, the melting point lay within 101 to 103 °C. On the same count and under the same terms, next, `CC(CO)N(C)CCOCCc1ccc2sccc2c1.O=C(O)C(=O)O` (centres unmarked): 97 to 99 °C; `CCN(CC)CCOCCc1ccc2sc(C)cc2c1.O=C(O)C(=O)O`: 96 to 98 °C.

For `COc1ccc(CN(C)CCOCCc2ccc3sccc3c2)cc1.O=C(O)C(=O)O`, the melting point was in the range of 78.5 to 81 °C. Same read-out and setting: next, `CN(CCOCCc1ccc2sccc2c1)CCOC(=O)C(C)(C)C.Cl`: 118 to 119 °C. Turning to `CCN(CC)CCOCCc1cc2ccsc2cc1F` [Example 31, N,N-diethyl-N-{2-[2-(6-fluorobenzo[b]thiophen-5-yl)ethoxy]ethyl}amine oxalate], the response vs control in vivo at 100 mg/kg in the data set with ddY male mice amounted to 248%. For `CN(C)CCOCCc1ccc(F)c2ccsc12.Cl`, the melting point was 67 to 69 °C. Same read-out and setting: then `CCC(Cc1ccc2sccc2c1)OCCN(CC)CC.Cl` (centres unmarked), with 84.5 to 87 °C. The same measure, in the same setting: next, `CCN(CC)CCOCCc1cc2occc2cc1OC.Cl`: 90 to 92 °C; `C#CCN(CC)CCOCCc1ccc2sccc2c1.Cl`: 115 to 123 °C. Same read-out and setting: next, `CCN(CC)CCCCCOCCc1ccc2sccc2c1.Cl`: 138.5 to 140 °C; `CN(CCO)CCOCCc1cccc2ccsc12.Cl`: 74 to 76 °C. In turn, `CCCN(CCC)CCOCCc1ccc2sccc2c1.O=C(O)C(=O)O` displayed a melting point of 93 to 98 °C. Regarding `CN(CCO)CCOCCc1c(F)ccc2ccsc12.Cl`, the melting point was 69 to 72 °C. The compound `CN(C)CCOCCc1cccc2ccccc12.Cl` yielded a melting point of 183 to 184 °C. The same measure, in the same setting: next, `CN(C)CCOCCc1ccc2sccc2c1Cl.Cl`: 92 to 95 °C; `CN(C)CCOCCc1cc2ccsc2cc1F.O=C(O)C(=O)O`: 120 to 126 °C; `CCN(CC)CCOCCc1ccc2occc(=O)c2c1.Cl`: 173 to 176 °C. On the same count and under the same terms, then `CCN(CC)CCCCCc1ccc2sccc2c1.O=C(O)C(=O)O`, with 58 to 60 °C.

For the compound `CN(CCOCCc1ccc2sccc2c1)CCOC(=O)c1ccccc1.Cl`, the melting point was in the range of 97 to 98 °C.

Regarding `COc1cc2sccc2cc1CCOCCN(C)C` [Example 53, N,N-Dimethyl-N-{2-[2-(6-methoxybenzo[b]thiophen-5-yl)ethoxy]ethyl}-amine hydrochloride], the response vs control in vivo at 100 mg/kg in the data set on ddY male mice amounted to 200%. As to `CN(C)CCOCCc1ccc2c(c1)OCO2.O=C(O)C(=O)O`, the melting point lay within 109 to 112 °C. The same measure, in the same setting: then `CCN(CC)CCOCCc1cc2ccsc2cc1OC.O=C(O)C(=O)O`, with 80 to 83 °C; and `CN(C)CCN(C)CCOCCc1ccc2sccc2c1.Cl.Cl`, with 228 to 230 °C; and `CN(C)CCOCCc1ccc2sc(-c3ccccc3)cc2c1.Cl`, with 170 to 172 °C. In the case of `CCN(C)CCOCCc1ccc2sccc2c1` [Example 102, N-[2-(2-Benzo[b]thiophen-5-ylethoxy)ethyl]-N-ethyl-N-methylamine oxalate], the response vs control in vivo at 100 mg/kg in the data set with ddY male mice was 210%. The compound `CCN(CC)CCOCCc1cccc2sccc12.O=C(O)C(=O)O` gave a melting point of 79 to 82 °C.

The compound `CC(COCCc1ccc2sccc2c1)N(C)CCO.O=C(O)C(=O)O` (centres unmarked) came in with a melting point of 72 to 74 °C. The same measure, in the same setting: then `CCN(CC)CCOCCc1cccc2ccsc12.O=C(O)C(=O)O`, with 75 to 76 °C. Same read-out and setting: then `CCN(CC)CCOCCc1c(F)ccc2ccsc12.Cl`, with 71 to 73.5 °C; and `CN(CCO)CCOCCc1cc2ccsc2cc1F.O=C(O)C(=O)O`, with 96 to 99 °C; and `C#CCN(CCOCCc1ccc2sccc2c1)Cc1ccccc1.O=C(O)C(=O)O`, with 107 to 108 °C.

Regarding `CC(O)CN(C)CCOCCc1ccc2sccc2c1` (centres unmarked) [Example 144, 1-{[2-(2-Benzo[b]thiophen-5-ylethoxy)ethyl]-(methyl)amino}-2-propanol oxalate], the response vs control in vivo at 100 mg/kg in the data set on ddY male mice stood at 250%. On to `CCN(CC)CCOCCc1ccc2ccsc2c1` [Example 101, N-[2-(2-Benzo[b]thiophen-6-ylethoxy)ethyl]-N,N-diethylamine oxalate], for which the response vs control in vivo at 100 mg/kg in the data set with ddY male mice was found to be 187%.

As to `CCN(CC)CCOCCc1ccc2c(c1)CCC2.Cl` [Example 105, N-{2-[2-(2,3-Dihydro-1H-inden-5-yl)ethoxy]ethyl}-N,N-diethylamine hydrochloride], the melting point was 104 to 105 °C. Moreover, the “Inhibitory rate on the decrease of MTT assay induced by HNE” value in data set [1] is recorded as 31%.

Compound `CCN(CC)CCOCCc1c(F)cc2ccsc2c1F.Cl` gave a melting point of 98 to 100 °C. `CN(C)CCOCCc1ccc2sccc2c1F.O=C(O)C(=O)O`: the melting point was 118 to 121 °C. With `CCN(CC)CCOCCc1cccc2ccccc12` [Example 49, N,N-diethyl-N-{2-[2-(1-naphthyl)ethoxy]ethyl}-amine oxalate], the response vs control in vivo at 100 mg/kg in the data set with ddY male mice was found to be 173%. Compound `CCN(CC)CCOCCc1ccc2c(c1)OCO2` [Example 25, N-{2-[2-(1,3-benzodioxol-5-yl)ethoxy]ethyl}-N,N-diethylamine] came in with a melting point of 83 to 84 °C. Still for that read-out and setting: then `CN(CCOCCc1cc2ccsc2cc1F)Cc1ccccc1.O=C(O)C(=O)O`, with 96 to 98 °C; and `CCN(CC)CCOCCc1ccc2ncccc2c1.O=C(O)C(=O)O`, with 90 to 92 °C. Still for that read-out and setting: next, `CN(CCOCCc1ccc2sccc2c1)Cc1ccc(F)cc1.O=C(O)C(=O)O`: 149 to 150.5 °C. On to `CN(CCOCCc1ccc2sccc2c1)C1CC1` [Example 158, N-[2-(2-benzo[b]thiophen-5-ylethoxy)ethyl]-N-cyclopropyl-N-methylamine hydrochloride], for which, in the data set on ddY male mice, the response vs control in vivo at 100 mg/kg came to 179%. Take `CCN(CC)CCCOCCc1ccc2sccc2c1.O=C(O)C(=O)O`: the melting point fell in the range of 87.5 to 89 °C.
